This is an account of results in patent publication US8883963B2 (Cadila Healthcare Limited, priority 2007, dated 2014).

Starred links: 1 amine or outer side, 2 acyl side, 3 side chain; linkers in the order of their positions; H or OH if unused. Non-standard residues stand in square brackets, D forms with d. Residues, ends and D or L forms follow the SMILES beside them. ξ: configuration not given here. ξBip(2'-Et-4'-OMe) = CCc1cc(OC)ccc1-c1ccc(CC(N)C(=O)O)cc1; ξαMePhe(2-F) = CC(N)(Cc1ccccc1F)C(=O)O; X2 = O=C(C(CCCc1ccccc1Cl)N[*:1])[*:2]; Aib = CC(C)(N)C(=O)O

Data set [1] deals with C57BL/6J mice (mild hyperglycemic). Description: In vivo glucose reduction, acute single dose 120-min time-course, i.p. route. Particulars: male C57BL/6J mice. Details: species or system mouse; unit not given here. The method, then:
All the animal experiments were carried out according to the internationally valid guidelines following approval by the ‘Zydus Research Center animal ethical committee’.
Two days prior to the study, the animals were randomised and divided into 5 groups (n=6), based upon their fed glucose levels. On the day of experiment, food was withdrawn from all the cages, water was given ad-libitum and were kept for overnight fasting. Vehicle (normal saline)/test/standard compounds were administered intraperitoneally (i.p.) or orally, on a body weight basis.
Blood samples were centrifuged and the separated serum was immediately subjected for the glucose estimation. Serum for insulin estimation was stored at −70° C. until used for the insulin estimation. The glucose estimation was carried out with DPEC-GOD/POD method (Ranbaxy Fine Chemicals Limited, Diagnostic division, India), using Spectramax-190, in 96-microwell plate reader (Molecular devices Corporation, Sunnyvale, Calif.). […] The AUC and BCAUC obtained from graphs were analyzed for one way ANOVA, followed by Dunnett's post test, using Graph Pad prism software. Furthermore, the insulin estimation was carried out using rat/mouse insulin ELISA kit (Linco research, Missouri USA).

A short description of data set [2]: Stability in simulated intestinal fluid. The data set is classed as in vitro ADME. The note with it: 2 μM peptidomimetic, simulated intestinal fluid pH 7.5, 37° C. As to the method:
(§1) Reactions were terminated by the addition of TFA/H2O (15 mL, 10% (v/v)). […] The column was equilibrated with TFA/H20, at a flow rate of 1 mL/min.

Data set [3] in a line: Stability in human plasma. The note with it: 2 μM peptidomimetic, pooled human plasma, 37° C. The data set is classed as in vitro ADME. The method, then: as §1
The nature of data set [4]: Stability in liver microsomes. Type of data set: in vitro ADME. The note with it: 2 μM peptidomimetic, human liver microsomes, 37° C. As to the method: as §1
Data set [5] is described as follows: Stability in simulated gastric fluid. Particulars: 2 μM peptidomimetic, simulated gastric fluid pH 1.5, 37° C. Type of data set: in vitro ADME. The method, then: as §1
The target in another data set is DPP IV (Homo sapiens, UniProt P27487). Kind of data set: Stability against DPP IV enzyme. Type of data set: in vitro ADME. The note with it: 37° C. The method, then:
as §1

A further data set concerns the target T1, human glucagon receptor (Homo sapiens, UniProt P47871).
T1 construct: The full-length cDNA was cloned in pcDNA3.1 (Invitrogen); expressed in transfected cells
Kind of data set: In vitro human glucagon antagonist activity (inhibition of cAMP production) in CHO/human glucagon R cells. Type of data set: cell-based. Particulars: with saturated concentration of glucagon peptide.

For data set [6], the system named is RIN5F (Rat Insulinoma) cells. Kind of data set: In vitro glucose-dependent insulin secretion (RIN5F cell assay screening protocol). The data set is classed as cell-based. Particulars: 16.7 mM glucose load.
Another data set concerns the target T2, Human GLP-1 receptor (Homo sapiens, UniProt P43220).
T2 construct: The full-length cDNA was cloned in pcDNA3.1(+); expressed in transfected cells
Description: In vitro Human GLP-1 R agonist activity (cyclic AMP determination) in CHO/human GLP1R cells. Type of data set: cell-based.

T1 sequence (P47871 26-477): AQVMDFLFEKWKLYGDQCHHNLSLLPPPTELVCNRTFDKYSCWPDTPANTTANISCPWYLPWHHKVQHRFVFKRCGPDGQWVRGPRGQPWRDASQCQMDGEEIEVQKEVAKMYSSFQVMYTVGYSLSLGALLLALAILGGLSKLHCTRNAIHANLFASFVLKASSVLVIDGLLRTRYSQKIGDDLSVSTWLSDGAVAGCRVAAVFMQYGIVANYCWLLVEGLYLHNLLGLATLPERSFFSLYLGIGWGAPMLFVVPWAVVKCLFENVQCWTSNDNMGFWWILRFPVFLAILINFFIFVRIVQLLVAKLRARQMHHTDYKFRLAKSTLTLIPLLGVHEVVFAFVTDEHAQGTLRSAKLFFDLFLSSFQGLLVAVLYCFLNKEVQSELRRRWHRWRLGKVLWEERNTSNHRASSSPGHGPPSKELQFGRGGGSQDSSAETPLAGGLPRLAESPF
T2 sequence (P43220 24-463): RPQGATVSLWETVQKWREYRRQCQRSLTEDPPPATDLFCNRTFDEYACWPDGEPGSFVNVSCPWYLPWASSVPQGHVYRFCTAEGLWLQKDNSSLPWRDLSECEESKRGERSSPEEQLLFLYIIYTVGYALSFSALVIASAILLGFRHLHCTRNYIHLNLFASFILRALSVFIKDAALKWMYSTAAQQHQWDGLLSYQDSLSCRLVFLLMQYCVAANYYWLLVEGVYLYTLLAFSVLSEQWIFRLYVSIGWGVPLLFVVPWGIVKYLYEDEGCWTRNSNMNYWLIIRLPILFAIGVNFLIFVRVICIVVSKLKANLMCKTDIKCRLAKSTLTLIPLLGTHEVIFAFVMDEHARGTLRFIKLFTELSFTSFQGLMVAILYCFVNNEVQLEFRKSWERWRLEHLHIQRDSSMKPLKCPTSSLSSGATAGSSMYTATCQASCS
Sequence of DPP IV (P27487 whole entry, species assumed): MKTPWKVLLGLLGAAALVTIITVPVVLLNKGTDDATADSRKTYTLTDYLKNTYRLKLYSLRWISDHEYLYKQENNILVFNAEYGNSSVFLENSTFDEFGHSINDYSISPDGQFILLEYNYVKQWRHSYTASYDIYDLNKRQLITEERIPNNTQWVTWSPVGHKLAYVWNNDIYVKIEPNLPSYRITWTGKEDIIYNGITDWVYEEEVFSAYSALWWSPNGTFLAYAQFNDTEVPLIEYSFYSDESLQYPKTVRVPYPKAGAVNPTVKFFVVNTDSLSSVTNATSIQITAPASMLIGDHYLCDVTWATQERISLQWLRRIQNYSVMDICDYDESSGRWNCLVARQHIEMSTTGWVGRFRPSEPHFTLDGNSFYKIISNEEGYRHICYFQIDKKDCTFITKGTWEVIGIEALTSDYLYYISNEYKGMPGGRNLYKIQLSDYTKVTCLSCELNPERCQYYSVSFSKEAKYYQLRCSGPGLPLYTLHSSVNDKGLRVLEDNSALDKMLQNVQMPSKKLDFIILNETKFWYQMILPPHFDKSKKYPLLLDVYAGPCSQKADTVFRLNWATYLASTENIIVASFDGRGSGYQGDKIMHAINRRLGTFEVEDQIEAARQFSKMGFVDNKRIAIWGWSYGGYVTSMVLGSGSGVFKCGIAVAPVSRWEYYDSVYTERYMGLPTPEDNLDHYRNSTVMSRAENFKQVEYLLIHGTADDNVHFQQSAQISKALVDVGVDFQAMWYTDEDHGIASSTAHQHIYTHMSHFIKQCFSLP

For `CCc1cc(OC)ccc1-c1ccc(CC(C(=O)N(C)C(CCCc2ccccc2F)C(N)=O)N(C)C(=O)[C@H](CC(=O)O)N(C)C(=O)[C@H](CO)NC(=O)[C@@H](NC(=O)C(C)(Cc2ccccc2F)NC(=O)[C@@H](NC(=O)CNC(=O)C(CCC#N)NC(=O)C(C)(C)NC(=O)[C@@H](N)Cc2c[nH]cn2)[C@H](C)O)[C@H](C)O)cc1` (single isomer, unassigned) [Seq. ID. 156], the blood glucose levels is on record as 180 ± 3.2 in [1] (30 nM/kg i.p., 0 min); 119 ± 3.2 in [1] (30 nM/kg i.p., 30 min); 117 ± 3.1 in data set [1] (30 nM/kg i.p., 60 min); 118 ± 1.8 in data set [1] (30 nM/kg i.p., 120 min).
Regarding `CCc1cc(OC)ccc1-c1ccc(CC(CNC(CCCc2ccccc2F)C(N)=O)NC(=O)[C@H](CC(=O)O)NC(=O)[C@H](CO)NC(=O)[C@@H](NC(=O)C(C)(Cc2ccccc2F)NC(=O)[C@@H](NC(=O)CNC(=O)C(CCC#N)NC(=O)C(C)(C)NC(=O)[C@@H](N)Cc2c[nH]cn2)[C@H](C)O)[C@H](C)O)cc1` (single isomer, unassigned) [Seq. ID. 192], the blood glucose levels is reported as 180 ± 2.5 in data set [1] (10 nM/kg i.p., 0 min); 110 ± 2.6 in data set [1] (10 nM/kg i.p., 30 min); 111 ± 3.2 in data set [1] (10 nM/kg i.p., 60 min); 112 ± 2.3 in data set [1] (10 nM/kg i.p., 120 min).
Taken in the same sequence, the figures for `CCc1cc(OC)ccc1-c1ccc(CC(CNC(CCCc2ccccc2)C(N)=O)NC[C@H](CC(=O)O)NC(=O)[C@H](CO)NC(=O)[C@@H](NC(=O)C(C)(Cc2ccccc2F)NC(=O)[C@@H](NC(=O)CNC(=O)[C@H](CCC(N)=O)NC(=O)C(C)(C)NC(=O)[C@H](Cc2c[nH]cn2)NC(=O)OC)[C@@H](C)O)[C@@H](C)O)cc1` (single isomer, unassigned) [Seq. ID. 194] were 183 ± 2.2, 113 ± 2.8, 113 ± 2.9 and 114 ± 2.0.
Taken in the same sequence, the figures for `CCc1cc(OC)ccc1-c1ccc(CC(CNC(CCCc2ccccc2F)C(N)=O)NC[C@H](CC(=O)O)NC(=O)[C@H](CO)NC(=O)[C@@H](NC(=O)C(C)(Cc2ccccc2F)NC(=O)[C@@H](NC(=O)CNC(=O)[C@H](CCC(N)=O)NC(=O)C(C)(C)NC(=O)[C@H](Cc2c[nH]cn2)NC(C)=O)[C@@H](C)O)[C@@H](C)O)cc1` (single isomer, unassigned) [Seq. ID. 195] were 182 ± 2.3, 110 ± 2.3, 112 ± 3.0 and 112 ± 1.9.
In the case of `CCc1cc(OC)ccc1-c1ccc(CC(CNC(CCCc2ccccc2F)C(N)=O)NC[C@H](CC(=O)O)NC(=O)[C@H](CO)NC(=O)[C@@H](NC(=O)C(C)(Cc2ccccc2F)NC(=O)[C@@H](NC(=O)CNC(=O)[C@H](CCC(N)=O)NC(=O)C(C)(C)NC(=O)[C@H](Cc2c[nH]cn2)NC(=O)OC)[C@@H](C)O)[C@@H](C)O)cc1` (single isomer, unassigned) [Seq. ID. 196], the blood glucose levels is recorded as 181 ± 2.5 in data set [1] (50 nM/kg i.p., 0 min); 111 ± 3.4 in data set [1] (50 nM/kg i.p., 30 min); 113 ± 3.1 in data set [1] (50 nM/kg i.p., 60 min); 110 ± 1.8 in data set [1] (50 nM/kg i.p., 120 min).
For `CCc1cc(OC)ccc1-c1ccc(CC(CNC(CCCc2ccccc2)C(N)=O)NC[C@H](CC(=O)O)NC(=O)[C@H](CO)NC(=O)[C@@H](NC(=O)C(C)(Cc2ccccc2F)NC(=O)[C@@H](NC(=O)CNC(=O)[C@H](CCC(N)=O)NC(=O)C(C)(C)NC(=O)[C@H](Cc2c[nH]cn2)NC(C)=O)[C@H](C)O)[C@H](C)O)cc1` (single isomer, unassigned) [Seq. ID. 197], in that order: 180 ± 4.2, 113 ± 3.2, 112 ± 2.4 and 110 ± 1.9.
For `CCc1cc(OC)ccc1-c1ccc(CC(CNC(CCCc2ccccc2)C(N)=O)NC[C@H](CC(=O)O)NC(=O)[C@H](CO)NC(=O)[C@@H](NC(=O)C(C)(Cc2ccccc2F)NC(=O)[C@@H](NC(=O)CNC(=O)[C@H](CCC(N)=O)NC(=O)C(C)(C)NC(=O)[C@H](Cc2c[nH]cn2)NC(=O)OC)[C@H](C)O)[C@H](C)O)cc1` (single isomer, unassigned) [Seq. ID. 198], in that order: 182 ± 4.1, 112 ± 3.1, 113 ± 2.6 and 111 ± 1.8.
On to `CCc1cc(OC)ccc1-c1ccc(CC(NC(=O)[C@H](CC(=O)O)NC(=O)[C@H](CO)NC(=O)[C@@H](NC(=O)C(C)(Cc2ccccc2F)NC(=O)[C@@H](NC(=O)CNC(=O)C(CCC#N)NC(=O)C(C)(C)NC(=O)[C@H](Cc2c[nH]cn2)NC(=O)OC)[C@@H](C)O)[C@@H](C)O)C(=O)NC(CCCc2ccccc2)C(N)=O)cc1` (single isomer, unassigned) [compound 206], for which, in data set [2] (24 h), the “% degradation of peptidomimetics in 24 h when incubated with simulated intestinal fluid” value was 00%. The half-life at 2 μM is more than 24 h in data set [2] (read-out: half-life (t1/2) when incubated with simulated intestinal fluid); more than 24 h in data set [3] (pH 7.8, read-out: half-life (t1/2) when incubated with human plasma); more than 24 h in data set [5] (read-out: half-life (t1/2) when incubated with simulated gastric fluid); more than 24 h on DPP IV (DPP IV enzyme, pH 7.8, 2 μM peptidomimetic, read-out: half-life (t1/2) when incubated with DPP-IV enzyme). In addition, in data set [3] (24 h), the “% degradation of peptidomimetics in 24 h when incubated with human plasma” value was determined as 00%. The “half-life (t1/2) when incubated with liver microsomes” value in data set [4] was “(5) h”. In addition, the “% degradation of peptidomimetics in 24 h when incubated with liver microsomes” value in data set [4] (24 h) was found to be 32%. Further, the “% degradation of peptidomimetics in 24 h when incubated with simulated gastric fluid” value in [5] (24 h) is reported as 00%. The “% degradation of peptidomimetics in 24 h when incubated with DPP-IV enzyme” value on DPP IV (2 μM peptidomimetic, 24 h) came to 00%. Moreover, the “Human Glucagon receptor antagonistic activity shown as inhibition of cAMP production of Glucagon peptide” value at human glucagon receptor (1 nM test compound), at human glucagon receptor (10 nM test compound), on human glucagon receptor (100 nM test compound), at human glucagon receptor (1 μM test compound) and at human glucagon receptor (10 μM test compound) was 0 pmol/ml/μg prt throughout. Further, the Insulin secretion came out at 12.1 ± 0.42 pg/µg/h in data set [6] (0.1 nM test compd.), 14.6 ± 0.41 pg/µg/h in data set [6] (1 nM test compd.) and 27.8 ± 0.46 pg/µg/h in [6] (10 nM test compd.). Further, the “Human GLP-1 R activity (cAMP release), % activity with respect to control” value was determined as 39 ± 0.12% on Human GLP-1 receptor (1 nM test compound); 80 ± 0.15% at Human GLP-1 receptor (10 nM test compound); 86 ± 0.18% on Human GLP-1 receptor (100 nM test compound); 95 ± 0.03% at Human GLP-1 receptor (1 μM test compound); 98 ± 0.09% on Human GLP-1 receptor (10 μM test compound).
For the compound `CCc1cc(OC)ccc1-c1ccc(CC(NC(=O)[C@H](CC(=O)O)NC(=O)[C@H](CO)NC(=O)[C@@H](NC(=O)C(C)(Cc2ccccc2F)NC(=O)[C@@H](NC(=O)CNC(=O)[C@H](CCC(N)=O)NC(=O)C(C)(C)NC(=O)[C@@H](N)Cc2c[nH]cn2)[C@@H](C)O)[C@@H](C)O)C(=O)NC(CCCc2ccccc2Cl)C(N)=O)cc1` (stereo partly shown) [Seq. ID. 90] (H-H[Aib]QGT[ξαMePhe(2-F)]TSD[ξBip(2'-Et-4'-OMe)][X2]-NH2), the blood glucose levels in data set [1] (10 nM/kg i.p., 0 min) was 181 ± 2.5; in [1] (10 nM/kg i.p., 30 min), 111 ± 3.4; in data set [1] (10 nM/kg i.p., 60 min) it was 113 ± 3.1; in data set [1] (10 nM/kg i.p., 120 min), 110 ± 1.8.
